One assay relates to VGSC. As to the kind of experiment: Patch-clamp recording of VGSC current, cell type not specified or several cell types (summary statements). It is filed as cell-based, human. (In general: In patch-clamp work, channel activity is measured electrically.)
In a further assay the test system is HEK Nav1.5 cells. Briefly: GFP-Tubulin / GFP-Actin cytoskeleton observation in HEK Nav1.5 cells. It counts as cell-based, human. The settings on record: MSG 5 mM.
The test system of assay [1] is Nav1.5 in T1R1-silenced HEK cells. Briefly: VGSC current in HEK Nav1.5 cells with silenced T1R1. It counts as cell-based, human. The settings on record: 5 mM for MSG2.5.
Assay [2] has as its system VGSC of SH-SY5Y cells (Nav1.7, Nav1.2, Nav1.3). Briefly: Patch-clamp recording of VGSC current in differentiated SH-SY5Y cells. It is filed as cell-based, human. To be noted: 5 mM.
In assay [3] the test system is voltage-dependent potassium channel current of SH-SY5Y cells. As to the kind of experiment: Voltage clamp recording of outward potassium current in SH-SY5Y cells. It is filed as cell-based, human. To be noted: 5 mM. From the text:
The inward current represents the transient peak observed immediately after stimulation, while the outward current measures the average value during the last 50 ms of rectangular pulse stimulation.

In another assay the test system is Nav1.5. Briefly: Patch-clamp (voltage clamp) recording of VGSC current in HEK cells stably expressing Nav1.5.
Another assay concerns Kv1.2. As to the kind of experiment: Patch-clamp recording of Kv1.2 potassium current in HEK cells expressing Kv1.2. It is filed as cell-based, human. On the procedure: The effects of Aβ peptides or umami substances on sustained potassium currents (VGKC) in cardiac myocytes can be studied using HEK cells expressing VGKC (such as Kv1.2, Kv3.2, Kv3.3) as well as SH-SY5Y cells expressing endogenous T1R GPCRs. For instance, as shown in the implementation example in (FIG. 36B), Aβ peptides were applied to VGKC-expressing human cultured cells, and VGKC currents were recorded using ramp-like or rectangular voltage waveforms via the patch-clamp technique. This allowed measurement of the changes (inhibition) in VGKC currents caused by Aβ peptides. Similar inhibition studies on VGKC can be conducted using umami substance L-glutamate sodium (MSG) (FIG. 36A).
As shown in (FIG. 37), Aβ1-42 peptide, unlike Aβ25-35 targeting T1R3, interacts with T1R1 and inhibits VGSC currents (FIGS. 37D, E).

“Also recorded” adds a separate entry of the source. Like-named read-outs stand apart in the source and are kept apart here.

The values that follow come from patent publication US20260240820A1, “METHOD FOR CONTROLLING MEMBRANE POTENTIAL-DEPENDENT ION CHANNEL THROUGH TYPE I TASTE RECEPTORS (T1RS)” (ION CHAT RESEARCH CORPORATE, priority 2022, published 2026).

Consider `N[C@@H](CCC(=O)O)C(=O)[O-].[Na+]` [MSG, monosodium glutamate], for which the “Effect on VGSC inactivation” value with VGSC was “delays the inactivation of VGSC”. Besides, the “Effects on VGSCs” value with VGSC is recorded as “Transient enhancement of VGSC; also recorded: Left shift of the I-V curve”; with VGSC (listed as L-Glu (MSG)), “Delay in VGSC inactivation”. Besides, the “VGSC I-V curve” value with VGSC (5 mM) is given as 5 mM MSG shifts the VGSC I-V curve to a more hyperpolarized direction. In addition, the “Delay of VGSC inactivation” value in the assay with VGSC (10 mM) was “This delaying effect even more evident at 10 mM MSG”. Further, the “Inactivation curve of VGSC shifted by dichlorprop” value with VGSC (VGSC inhibited by more than 80% by dichlorprop) is on record as “partially recovered”. Besides, the “Suppression / leftward S-S shift of VGSC caused by artificial sweeteners” value with VGSC (cells pre-treated with aspartame or saccharin) was “partially reversed”. In the assay with HEK Nav1.5 cells, the “Microtubule fibrous structure (GFP-Tubulin)” value was “disappearance of microtubule-like structures; also recorded: microtubule structure disappeared”. Moreover, in assay [1], the “Effect on VGSC currents in T1R1-silenced cells” value is “MSG had no effect on VGSC enhancement in T1R1 silenced cells”. Moreover, in assay [2], the “Inactivation of VGSC current” value was “delayed; also recorded: The inactivation speed of VGSC slows in 2 out of 3 SH-SY5Y cells”. Moreover, the “Effect on outward potassium current” value in assay [3] was “reduces the voltage-dependent potassium channel current; also recorded: decrease in outward currents”. Further, the “Inactivation process of transient VGSC current” value in the assay with Nav1.5 (5 mM) was “significantly delayed; also recorded: This delay in inactivation speed more pronounced in Nav1.5 cells”. In addition, the “VGSC current suppressed by TBB” value in the assay with Nav1.5 (10 mM, after CK2 inhibitor TBB) is recorded as “partially recovered from TBB suppression”. The “S-S curve shifted by TBB” value in the assay on Nav1.5 (after TBB) is “partially reversed the leftward shift caused by TBB”. For the same compound, the “Effect on voltage gated K+ channel (Kv1.2) current” value in the assay on Kv1.2 was “Inhibition of Voltage gated”.
